Values quoted from earlier work, collected in patent US7053240B2, “Process for synthesizing disulfides” (BioNumerik Pharmaceuticals, Inc., priority 2003, dated 2006).

Tests used:
mice = conditions: intravenously, doses higher than 3750 mg/kg
dogs = conditions: intravenously, doses higher than 3750 mg/kg
[1] = accepted value

SMILES | adverse effects (mice) | adverse effects (dogs) | oral LD50 [1] [mg/kg]
O=S(=O)(O)CCSSCCS(=O)(=O)O [Dimesna, disodium 2,2′-dithiobis ethane sulfonate] | no adverse effects | no adverse effects | 
[Cl-].[Na+] [common table salt] |  |  | 3750
